Data as given in patent US20100204295A1, “TREATMENT OF ALLERGIC DISEASE WITH IMMUNOMODULATOR COMPOUNDS” (SCICLONE PHARMACEUTICALS, INC., priority 2007, published 2010).

Legend:
interleukin-4 = assay: ConA-induced IL-4 production by splenocytes after intra-abdominal SCV-07; format: in vivo, mice; conditions: 1 μg/kg, five daily intra-abdominal injections; ConA 5 μg/mL
Method: (§1) SCV-07 was administered to intact wild mice in the form of five daily intra-abdominal injections at dosages of 0.1 and 1.0 μg/kg of body weight. After this, isolation of spleen cells was carried out the cytokine synthesis was induced in the culture by stimulating the cells with concanavalin A at a dosage of 5 μg/mL. The levels of the synthesized cytokines were determined by quantitative immunoenzyme analysis. […] The changes on ConA-induced production of two other [sic] cytokines—IFN-γ and IL-4, as is apparent from FIG. 1, were reciprocal in nature.

[1] = test system: experimental allergic asthma (BAL cells); assay: Cytological composition of bronchoalveolar lavage in allergic ovalbumin asthma model; format: in vivo, mice of the Balb/C line; conditions: for Total cellularity of the BAL: animals 6-8 weeks, mean±SD; for Eosinophils, % of BAL cells / Lymphocytes, % of BAL cells / Monocytes/Macrophages, % of BAL cells / Neutrophils, % of BAL cells: animals 6 to 8 weeks; for Eosinophils in BAL, thousand / Lymphocytes in BAL, thousand / Monocytes/Macrophages in BAL, thousand / Neutrophils in BAL, thousand / Total number of cells in the lavages: animals 18 to 20 weeks
Description: Female, non-pathogenic mice of the Balb/C line (“Pushchtino” laboratory animal breeders) were kept under conditions of an SPF-vivarium at a constant temperature, 12-hour day/night cycle, and received sterile feed and water ad libitum. In two series of experiments, mice from 6-8 weeks and 18-20 weeks of age were used at the beginning of the experiment, respectively.
The animals were immunized twice at 5-day intervals with an ovalbumin solution (Sigma) in an adjuvant based on ammonium sulfate at a dosage of 8 μg per mouse. SCV-07 was administered intra-abdominally in a volume of 200 μL at a dosage of 0.1 or 1.0 μg/kg in PBS once a day from 6 through 11 days after the first immunization. The control group received physiological saline on the same days. Each group comprised 6 to 10 animals. On the 12th, 16th and 20th days after the first immunization, the animals were then placed in a hermetic box, in which an aerosol of 1% ovalbumin solution (OvA) in PBS was generated with an ultrasonic nebulizer LD-207U (Little Doctor) for 1 minute with continuous mixing of air. The duration of exposure of the animals to the aerosol was 15 minutes. Analysis of the severity of experimental allergic asthma was carried out 24 hours after the last aerosol exposure.
The mice were killed by intra-abdominal administration of a lethal dose of sodium barbital. Bronchoalveolar lavage (BAL) was obtained by washing the lungs through the trachea with 1 mL PBS solution. The BAL cells were precipitated by centrifuging, the precipitate was resuspended, the cell concentration was counted in a Goryaev chamber, and smears were prepared. The smears were dried, fixed and stained with Romanovskii dye. The cytological composition of the bronchoalveolar lavage was investigated under a light microscope with oil immersion (eyepiece×16, objective×100). The numbers of monocyte/macrophages, neutrophils, eosinophils and lymphocytes per 200 cells were counted, in which no less than 5 visual fields were viewed. The relative number of cells of each cell population was expressed as the percentage of the total number of cells.
The statistical processing of the results was carried out with the Microsoft Excel and SPSS programs for Windows v.13. The normality of the distribution was determined with the Kholmogorov-Smimov criterion. To evaluate the significance of the differences between groups for normally distributed values, we used the two-sided Student test with unequal deviations, for non-normally distributed differences—the Mann-Whitney test. The differences were considered significant at p<0.05. Unless otherwise stated, the data are presented in the form of means±standard deviation.

bronchial asthma = format: in vivo
Description: Patient B-skii, reported with complaints of dyspnea attacks 6-7 times a day, cough with phlegm that was difficult to discharge, shortness of breath, and nasal obstruction. It is known from the history that, since 1985, they have suffered bronchial asthma, has been hospitalized several times by emergency medical services in the Allergological Department in conjunction with exacerbation of the disease. Since 1997, they have been taking systemic glucocorticoids (Prednisolone 2 tablets/day—maintenance dose). They are also receiving Beklazom LD 250 (up to 1000 μg/day), Flixotide 250 (to 1000 μg/day), prolonged broncholytics (Serevent 25 μg/unit 50 μg/s), Teotard 200 (2 k/day, 400 mg/day). The attacks are treated with salbutamol (Ventolin).
The patient was prescribed the treatment: • 1. Ventolin through a nebulizer during dyspnea attacks—for 2 days, then Astalin (DAI) during dyspnea no more than 3-4 times a day; • 2. Intravenous drip: • 1. Prednisolone 90 nu-60 nu-30 nu in 200.0 mL physiological saline; • 2. Euphylline 2.4%-10.0-5.0 mL. • 3. Heparin 5000 units. • 4. Benacort 200 (800 μg/day). • 5. Prednisolone 4 t/day (8:00, 12:00) • 6. Lazolvan through a nebulizer, then Ambrohexyl 1 t/3 times a day.
During attenuation of the acute condition (on the 8th day of hospitalization), SCV-07 was prescribed in an amount of 0.1 mg in 1.0 mL physiological saline once a day No. 5 daily [sic] intramuscular.
The patient took another examination under dynamic conditions (24 hours after the 5th intramuscular injection of SCV-07): Total blood analysis: erythrocytes—5.12·10^12/L, HB—159 g/L, leukocytes—9.7° 10^9/L, ESR—6 mm/h, b-, e—2%, rod nuclears—5%, segmented nuclears—67%, lymphocytes—20%, M—6%. Blood biochemistry: Sugar—5.7; Total bilirubin—8.9, ALT—0.12, AST—0.13, urea—5.12, creatinine—0.073 General sputum analysis—character—mucous, color gray, consistency viscous, flat epithelium 7-8, alveolar epithelium—none, leukocytes—1-2× in visual field. Hormonal status—cortisol—72.4 Evaluation of immune status

[2] = test system: 5-FU-immune-suppressed animals; conditions: in vivo; cited from earlier work
interferon-γ = assay: ConA-induced IFN-γ production by splenocytes after intra-abdominal SCV-07; format: in vivo, mice; conditions: 1 μg/kg, five daily intra-abdominal injections; ConA 5 μg/mL
Method: as §1

bone marrow cells = conditions: cited from earlier work
[3] = 24 hours after the 5th injection
[4] = after 5 intramuscular injections of 0.1 mg

## N[C@H](CCC(=O)N[C@@H](Cc1c[nH]c2ccccc12)C(=O)O)C(=O)O [SCV-07, γ-D-glutamyl-L-tryptophan]
interleukin-4
  Change in ConA-induced production of IL-4 by the splenocytes: two-fold reduction
[1]; SCV-07 0.1 μg/kg intra-abdominally
  Total cellularity of the BAL: 1.96±0.99 million
[1]; SCV-07 1 μg/kg
  Total cellularity of the BAL: 2.21±1.16 million
[1]; 0.1 μg/kg
  Eosinophils, % of BAL cells: 57.4 ± 21.3%
  Lymphocytes, % of BAL cells: 0.4 ± 0.5%
  Monocytes/Macrophages, % of BAL cells: 41.2 ± 20.7%
  Neutrophils, % of BAL cells: 0.9 ± 0.8%
  Eosinophils in BAL, thousand: 456 ± 144 thousand
  Lymphocytes in BAL, thousand: 22 ± 11 thousand
  Monocytes/Macrophages in BAL, thousand: 629 ± 134 thousand
  Neutrophils in BAL, thousand: 17 ± 14 thousand
[1]; 1 μg/kg
  Eosinophils, % of BAL cells: 56.7 ± 9.5 %
  Lymphocytes, % of BAL cells: 0.6 ± 0.7%
  Monocytes/Macrophages, % of BAL cells: 40.6 ± 9.4 %
  Neutrophils, % of BAL cells: 2.1 ± 0.9%
  Eosinophils in BAL, thousand: 690 ± 247 thousand
  Lymphocytes in BAL, thousand: 26 ± 9 thousand
  Monocytes/Macrophages in BAL, thousand: 586 ± 144 thousand
  Neutrophils in BAL, thousand: 18 ± 10 thousand
  Total number of cells in the lavages: 1.32±0.23 million
[1]; 0.1 μg/kg, p<0.05 vs control
  Total number of cells in the lavages: 1.12±0.15 million
Bronchial asthma; [3]
  Immune status: CD3+: CD3^+- 52
  Immune status: CD4+: CD4^+- 36
  Immune status: CD8+: CD8^+- 15
  Immune status: CD16+: CD16^+- 7
  Immune status: CD20+: CD20^+-11
  Immune status: CD25+: CD25^+-1.3
  Immune status: Ig A: Ig A - 1.11
  Immune status: Ig G: Ig G - 11.5
  Immune status: Ig M: Ig M - 0.9
  Immune status: NST: NST - 100/163
  Immune status: TSIK: TSIK - 77
  Immune status: κ (NST ratio): κ - 1.6
Bronchial asthma; 24 hours after the 5th injection, 1130.6 on admission
  Immune status: Ig E: Ig E - 672.1
Bronchial asthma; [4]
  Clinical dynamics of the disease: elimination of dyspnea attacks, cough, rhinitis
  Patient well-being after the course: significant improvement of feeling well-being
Bronchial asthma; after course, 24 per minute on admission
  Shortness of breath (respiratory rate): 16 per minute
[2]
  Effect on 5-FU-immune-suppressed animals: strong immunostimulatory effect
interferon-γ
  Change in ConA-induced IFN-γ production by the splenocytes: almost five-fold increase
Bone marrow cells
  Expression of Thy-1.2 on bone marrow cells: stimulates expression
